The values that follow come from patent publication US4503256A, “Phlorophenone derivatives, processes for preparing such compounds, uses and pharmaceutical compositions of phlorophenone compounds” (Noristan Limited, priority 1981, dated 1985).

≈ marks a conversion by molar mass, not a printed value. Read-outs that look alike come from different tables or passages of the source. Some results are limits rather than exact numbers.

Series [1] has as its system S. AUREUS. Description: Minimum Inhibitory Concentration (MIC), broth dilution in Brain Heart Infusion broth. Format: cell-based, Staphylococcus aureus. The conditions noted are these: Staphylococcus aureus, read-out: MIC S. AUREUS. Here is the method: (§1) For testing against the bacteria, concentrations of each of the compounds were prepared in Brain Heart Infusion broth (Oxoid CM225) in two-fold steps from 1000 μg/ml to 1 μg/ml. Solutions containing 1000 μg/ml were prepared by dissolving 20 mg of each compound in 5 ml of acetone and this was then made up to 20 ml with Brain Heart Infusion Broth. Serial two-fold dilutions were then prepared in the broth down to 1 μg/ml.
(§2) For testing against the bacteria each of the prepared test concentrations and acetone controls prepared in Brain Heart Infusion were dispensed in 2 ml amounts for each organism. A growth control of 2 ml of Brain Heart Infusion was included in each series.
(§3) To each of the prepared sets of concentrations of each compound were added 0.1 ml aliquots of the organism suspensions prepared as described previously. All the bottles were incubated at 37° C. for 48 hours in the case of the bacteria and from 5 to 15 days for the fungi (until growth controls had grown in each case).
(§4) After incubation the broths were examined for evidence of growth. The lowest concentration of the test compound which prevented growth was recorded as the Minimum Inhibitory Concentration (MIC).

Series [2] concerns St. PYOGENES
Described as above. The series is classed as cell-based. The settings on record: Streptococcus pyogenes, 37° C., 48 hours. The protocol: as §1, §2, §3, §4

The subject of series [3] is C. ALBICANS
Description: Minimum Inhibitory Concentration (MIC), dilution in Sabouraud liquid medium. The series is classed as cell-based. The settings on record: Candida albicans, 37° C., 5 to 15 days. Here is the method:
(§5) For testing against the fungi, concentrations of each of the compounds were prepared in Sabouraud liquid medium in two-fold steps from 100 μg/ml to 0.1 μg/ml. 500 μg/ml solutions were prepared by dissolving 10 mg in 5 ml of acetone, made up to 20 ml with Sabouraud liquid medium. 4 ml of the 500 μg/ml concentration was then made up to 20 ml with Sabouraud liquid medium to give a concentration of 100 μg/ml. Serial two-fold dilutions were prepared from this in the same medium down to 0.1 μg/ml.
(§6) For the fungi the same procedure was followed using the concentrations made up in Sabouraud liquid medium. The Nystatin concentrations were also dispensed in 2 ml amounts for each organism. Growth controls of Sabouraud liquid medium were included in each series.
as §3, §4

Series [4] relates to Mic. CANIS. The description is as above. Format: cell-based. The settings on record: Microsporum canis, 37° C., 5 to 15 days. Here is the method:
as §5, §6, §3, §4

For series [5], the system named is Sp. SCHENKII
The series is described as above. Format: cell-based. The conditions noted are these: 37° C., 5 to 15 days. Here is the method:
as §5, §6, §3, §4

Series [6] concerns Tr. MENTAGROPHYTES
The description is as above. The conditions noted are these: Trichophyton mentagrophytes, 37° C., 5 to 15 days. The series is classed as cell-based. Here is the method:
as §5, §6, §3, §4

In series [7] the test system is Tr. RUBRUM. The description is as above. Format: cell-based. The conditions noted are these: Trichophyton rubrum, 37° C., 5 to 15 days. Here is the method: as §5, §6, §3, §4
A short description of series [8]: Acute oral toxicity in CD-1 mice. The settings on record: mouse, in vivo, male and female CD-1 mice, dose levels 1000, 464, 215 and 100 mg/kg, 7 days observation. Format: in vivo. The protocol:
Male and female CD-1 mice were fasted for 18 hours prior to the experiment, but water was available ad libitum except during the observation period. The test compounds were prepared in 1% tragacanth and were administered orally to groups of two male and two female mice.
All compounds were tested at dose levels of 1000, 464, 215 and 100 mg/kg. Immediately after dosing, the mice were replaced in their "home" cage and were observed daily for 7 days post dose and any mortalities recorded.
The acute toxicities, as determined by the above procedure, of a number of representative compounds are given in the accompanying table.

Where [9] appears, read: 37° C., 48 hours, Brain Heart Infusion broth.

Consider `C=CCc1c(O)cc(O)c(C(=O)CCCC)c1O` [Compound 17], for which the MIC was 64 µg/mL (≈ 256 µM) in series [1] (setting [9]); 16 µg/mL (≈ 63.9 µM) in series [2]; 25 µg/mL (≈ 99.9 µM) in series [3]; 6 µg/mL (≈ 24 µM) in series [4]; 25 µg/mL (≈ 99.9 µM) in series [5]; 13 µg/mL (≈ 51.9 µM) in series [6]. This compound also displayed an MIC in series [7] of 13 µg/mL (≈ 51.9 µM). The LD50 at 168 h in series [8] is above 1000 mg/kg.
Turning to `CCCC(=O)c1c(O)cc(O)c(C(=O)CCC)c1O` [Compound 1, 2,4-Dibutyrylphloroglucinol], the MIC in series [1] (setting [9]) was 2 µg/mL (≈ 7.51 µM); in series [2], 1 µg/mL (≈ 3.76 µM); in series [3], 13 µg/mL (≈ 48.8 µM); in series [4], 3 µg/mL (≈ 11.3 µM); in series [5], 6 µg/mL (≈ 22.5 µM); in series [6], 6 µg/mL (≈ 22.5 µM). 6 µg/mL (≈ 22.5 µM) was the least that counted as inhibitory in series [7] (MIC). Further, the LD50 at 168 h in series [8] is above 1000 mg/kg.
For the compound `CCC(=O)c1c(O)cc(O)c(CC=C(C)C)c1O` [Compound 2, 2-Propionyl-4-(3-methylbuten-2-yl)phloroglucinol], the MIC was determined as 125 µg/mL (≈ 499 µM) in series [1] (setting [9]); 8 µg/mL (≈ 32 µM) in series [2]; 50 µg/mL (≈ 200 µM) in series [3]; 13 µg/mL (≈ 51.9 µM) in series [4]; 25 µg/mL (≈ 99.9 µM) in series [5]; 25 µg/mL (≈ 99.9 µM) in series [6]. Further, in series [7], inhibition of growth (MIC) required 13 µg/mL (≈ 51.9 µM). This compound also had an LD50 at 168 h in series [8] above 1000 mg/kg.
With `CCCCCCCC(=O)c1c(O)cc(O)c(CC=C(C)C)c1O` [Compound 11, 2-Octanoyl-4-(3-methylbuten-2-yl)phloroglucinol], the MIC in series [1] (setting [9]) was 64 µg/mL (≈ 200 µM); in series [2] it was 2 µg/mL (≈ 6.24 µM); in series [3], 100 µg/mL (≈ 312 µM); in series [4] it was 50 µg/mL (≈ 156 µM); in series [5], above 100 µg/mL; in series [6] it was 100 µg/mL (≈ 312 µM). This compound registered an MIC in series [7] of 50 µg/mL (≈ 156 µM). In addition, in series [8], the LD50 at 168 h turned out to be 597 mg/kg.
For `CCCC(=O)c1c(O)c2c(c(C(=O)CCC)c1O)OC(C)C2` (stereo not drawn) [Compound 37, 4,6-dihydroxy-5,7-dibutyryl-2-methyl-2,3-dihydrobenzofuran], the MIC in series [1] (setting [9]) was 125 µg/mL (≈ 408 µM); in series [2], 32 µg/mL (≈ 104 µM); in series [3], above 100 µg/mL; in series [4] it was above 100 µg/mL; in series [5] it was above 100 µg/mL; in series [6], above 100 µg/mL. Further, in series [7], the minimum inhibitory concentration (MIC) amounted to 100 µg/mL (≈ 326 µM). The LD50 at 168 h in series [8] was above 215 mg/kg.
In the case of `CC(C)=CCc1c(O)cc(O)c(C(=O)C2CCCC2)c1O` [Compound 9, 2-(2-Cyclopentyl-1-oxo)-4-(3-methylbuten-2-yl)phloroglucinol], the MIC in series [1] (48 h) amounted to 32 µg/mL (≈ 110 µM); in series [2], 8 µg/mL (≈ 27.6 µM); in series [3], 6.2 µg/mL (≈ 21.4 µM); in series [4], 1.6 µg/mL (≈ 5.51 µM); in series [5], 6.2 µg/mL (≈ 21.4 µM); in series [6] it was 6.2 µg/mL (≈ 21.4 µM). The compound further returned an MIC in series [7] of 3.1 µg/mL (≈ 10.7 µM). This compound displayed an LD50 at 168 h in series [8] below 100 mg/kg.
For `CCCCCCCCC(=O)c1c(O)cc(O)c(Cc2ccccc2)c1O` [Compound 27, 2-Nonanoyl-4-benzylphloroglucinol], the MIC came to 2 µg/mL (≈ 5.61 µM) in series [1] (48 h); 1 µg/mL (≈ 2.81 µM) in series [2]; 100 µg/mL (≈ 281 µM) in series [3]; 50 µg/mL (≈ 140 µM) in series [4]; 50 µg/mL (≈ 140 µM) in series [5]; 5 µg/mL (≈ 14 µM) in series [6]. The compound further displayed an MIC in series [7] above 100 µg/mL. Besides, the LD50 at 168 h in series [8] was above 1000 mg/kg.
With `CCCCCCCCC(=O)c1c(O)cc(O)c2c1OC(C)(C)CC2` [Compound 32, 5,7-Dihydroxy-2,2-dimethyl-8-nonanoyl chroman], the MIC is 64 µg/mL (≈ 191 µM) in series [1] (setting [9]); below 1 µg/mL in series [2]; 100 µg/mL (≈ 299 µM) in series [3]; 100 µg/mL (≈ 299 µM) in series [4]; 100 µg/mL (≈ 299 µM) in series [5]; above 100 µg/mL in series [6]. The MIC in series [7] is above 100 µg/mL. The compound further had an LD50 at 168 h in series [8] above 1000 mg/kg.
For `CC(C)=CCc1c(O)cc(O)c(C(=O)Cc2ccccc2)c1O` [Compound 6, 2Phenylacetyl-4-(3-methylbuten-2-yl)phloroglucinol], the MIC in series [1] (setting [9]) is 250 µg/mL (≈ 800 µM); in series [2], 8 µg/mL (≈ 25.6 µM); in series [3], above 100 µg/mL; in series [4] it was 50 µg/mL (≈ 160 µM); in series [5], 50 µg/mL (≈ 160 µM); in series [6], 100 µg/mL (≈ 320 µM). The compound also registered an MIC in series [7] of 25 µg/mL (≈ 80 µM). Besides, the LD50 at 168 h in series [8] is above 1000 mg/kg.
